Data on seven compounds can be found in patent US7651979B2, “Coordination complexes, and methods for preparing by combinatorial methods, assaying and using the same” (priority 2000, dated 2010).

Test [1] has as its system BlaM HeLa cells. In kind it is cell-based, human. Conditions: for response of independently synthesized compounds on the BlaM HeLa assay: pure compounds made by non-combinatorial means; for ratio of green to blue fluorescence with increasing concentration: increasing concentrations, FIG. 7, twenty-eight hours. The text has this: Another example of a subject assay is termed the CCF2/AM assay. The CCF2/AM dye is an effective assay for the presence of β-lactamase, and thus may be used as a sensor for its transcription. See, for example, U.S. Pat. No. 5,955,604 and WO 9630540. This screen in based on a cellular response that is relatively unique to cisplatin. […] See Sandman et al., Chem. Bio. 6:541-51 (1999). […] In addition, the rapid inhibition of transcription, which occurs prior to apoptosis, may be evaluated over a short period of time. In the BlaM HeLa cell line used herein, the inhibition of transcription coupled with the half-life of ambient β-lactamase results in a one-day screening protocol.
To screen drug candidates for transcription inhibition activity, genetically modified HeLa cells developed by Aurora Biosciences were exposed to the products from the above parallel reactions. BlaM HeLa cells have been permanently transfected with a vector encoding the 29-kD plasmid encoded TEM-1 β-lactamase from E. coli. This enzyme is the product of the ampicillin resistance gene Amp^r, and is not normally expressed in mammalian cells.
BlaM HeLa cells were grown up from stock provided by Aurora Biosciences using standard cell culture techniques. This cell line was grown in 10 cm plates by using a modified Dulbecco's Modified Eagle Medium supplemented with 10% fetal bovine serum, 2 mM L-glutamine, 1.0 mM sodium pyruvate, and 0.1 mM non-essential amino acids. Bacterial growth was inhibited through intermittent exposure to […], and selection of the BlaM cells was maintained through the weekly administration of 800 μg/mL G418 (geneticin).
For plate reader-based experiments, HeLa cells were distributed into black, clear-bottom, 96-well plates (Corning). Nearly confluent 10 cm plates (60-70%) were trypsinized and distributed (100 μL) into the 96-well plates, and allowed to adhere and grow for approximately 18 h. Cells were then washed with 100 μL PBS and provided with fresh media prior to treatment. After treatment, the cells were exposed to the CCF2/AM dye for one hour, and measured for fluorescence on the fmax plate reader. The cellular response to platinum compounds was determined by taking the ratio of the absolute value of measured fluorescence at 530 nm (green) over the absolute value of measured fluorescence at 460 nm (blue). This response is corrected for the background of the microplate.
Concentration and time-dependent studies were conducted with cisplatin and other pure platinum compounds to determine the response of the cells to platinum chemotherapeutics. For the library screen, cells were exposed to 30 μM of platinum product from the reactions for 28 hours. 72 reactions were screened manually per day, with each compound measured in triplicate. […] After the exposure period the cells were worked up using the CCF2/AM dye protocol, and hits were determined by their response related to that of a cisplatin standard at the same concentration. Initial hits were then rescreened for dose dependent toxicity, over a range from 0 to 75 μM concentrations.

Test [2] deals with BlaM HeLa cells. Put plainly: Northern blotting of RNA from BlaM HeLa cells. In kind it is cell-based, human. Conditions: 30 μM, 12 hours, FIG. 5. As to the method:
Two 10 cm plates of BlaM HeLa cells were grown to 60-70% confluence, and one treated with 30 μM cisplatin for twelve hours. After this treatment, RNA was extracted from the cells on each plate using an Ambion kit and quantified by UV-visible spectroscopy. The RNA was electrophoresed on an agarose-formaldehyde gel, transferred to a nylon membrane, and crosslinked with a Stratalinker UV device by using standard procedures. This blot was probed with ^32P labeled BlaM fragment from pcDNA-3 (Aurora Biosciences) and 7S RNA from pUC(Amp), and quantified by a Biorad phosphorimager apparatus.

For the compound `[NH2][Pt]([Cl])([Cl])[NH]C1CCC1` [ammine-cyclobutylamine complex, cis-ammine(cyclobutylamine)PtCl2], the “response of independently synthesized compounds on the BlaM HeLa assay” value in the test with BlaM HeLa cells [1] is on record as “positive response”.
Same read-out and setting: the value for `[Cl][Pt]([Cl])([NH]C1CCC1)[NH]C1CCC1` [bis-cyclobutylamine species, cis-(cyclobutylamine)2PtCl2] was “positive response”; that for `CC(C)N.CC(C)N.[Cl-].[Cl-].[Pt+2]` [cis-(isopropylamine)2PtCl2] was “positive response”; that for `Cc1cccnc1N.N.[Cl][Pt][Cl]` [cis-ammine(2-amino-3-picoline)dichloroplatinum(II)] was “positive response”.
With `N.N.[Cl][Pt][Cl]` [cisplatin, cis-diamminedichloroplatinum(II)], in the test with BlaM HeLa cells [1] (30 μM, 28 hours, triplicate, response above 0.092 considered a hit), the “response (ratio of fluorescence at 530 nm (green) over 460 nm (blue)) in initial screen” value worked out at 0.092. The “ratio of green to blue fluorescence with increasing concentration” value in the test on BlaM HeLa cells [1] is “definite increase”. In the test with BlaM HeLa cells [1] (time dependence, FIG. 8), the “time at which cell response peaked” value is reported as “approximately 20 hours”. In the test with BlaM HeLa cells [2], the “transcription of both the BlaM vector and control 7S RNA” value was “decrease in transcription”.
`O=[N+]([O-])[O-].[Ag+]` [silver nitrate]: in the test with BlaM HeLa cells [1] (in media, same concentration as cisplatin (~30 μM), FIG. 9), the transcription inhibition response result was “does not give a transcription inhibition response”.
Take `N.N.[Cl][Pt][Cl]` [trans-DDP, trans-diamminedichloroplatinum(II)]: in the test with BlaM HeLa cells [1], the “ratio of green to blue fluorescence with increasing concentration” value is given as “no increase”. For the same compound, the “cell response over time” value in the test with BlaM HeLa cells [1] (time dependence, any of the times measured, FIG. 8) is given as “no cell response”.
